In US9302999B2, “Substituted triazoles as herbicides” (E. I. DU PONT DE NEMOURS AND COMPANY, priority 2012, dated 2016):

What was measured:
[1] = tested on: wheat (Triticum aestivum); test: Test A pre-/postemergence: wheat; type: in vivo
Summary of the method: (§1)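 Injury is scored visually on a scale where 0 means no effect and 100 complete control, comparing treated with untreated plants after approximately ten greenhouse days. Both preemergence and postemergence applications are made at the same time.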

[2] = tested on: nutsedge, yellow (yellow nutsedge, Cyperus esculentus); test: Test C pre-/postemergence: nutsedge, yellow; type: in vivo
Summary of the method: (§2)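 Visual injury scored 0–100 (100 = complete control) against untreated controls after 13–15 greenhouse days. Surfactant-containing solvent formulations applied either to soil after sowing (loam/sand) or over 1- to 4-leaf plants, 2–18 cm tall.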

[3] = tested on: foxtail, giant (giant foxtail, Setaria faberii); test: Test A pre-/postemergence: foxtail, giant; type: in vivo
Summary of the method: as §1

[4] = tested on: foxtail, giant (giant foxtail, Setaria faberii); test: Test C pre-/postemergence: foxtail, giant; type: in vivo
Summary of the method: as §2

Waterhemp = test: Test C postemergence: waterhemp; type: in vivo
Description: At the same time, plants selected from these crop and weed species and also barley (winter barley, Hordeum vulgare), canarygrass (Phalaris minor), chickweed (common chickweed, Stellaria media) windgrass (Apera spica-venti) and deadnettle (henbit deadnettle, Lamium amplexicaule) were planted in pots containing Redi-Earth® planting medium (Scotts Company, 14111 Scottslawn Road, Marysville, Ohio 43041) comprising spaghnum peat moss, vermiculite, wetting agent and starter nutrients and treated with postemergence applications of test chemicals formulated in the same manner. Plants ranged in height from 2 to 18 cm (1- to 4-leaf stage) for postemergence treatments.
Treated plants and controls were maintained in a greenhouse for 13 to 15 days, after which time all species were compared to controls and visually evaluated. Plant response ratings, summarized in Table C, are based on a scale of 0 to 100 where 0 is no effect and 100 is complete control. A dash (-) response means no test result.

Oilseed Rape = test: Test C preemergence: oilseed rape; type: in vivo, Brassica napus; conditions: 125 g ai/ha, scale 0 to 100, 0 no effect, 100 complete control
[5] = tested on: crabgrass, large (large crabgrass, Digitaria sanguinalis); test: Test A pre-/postemergence: crabgrass, large; type: in vivo
Summary of the method: as §1

soybean (Glycine max) = test: Test C pre-/postemergence: soybean; type: in vivo
Summary of the method: as §2

[6] = tested on: pigweed (Amaranthus retroflexus); test: Test A pre-/postemergence: pigweed; type: in vivo
Summary of the method: as §1

[7] = tested on: pigweed (Amaranthus retroflexus); test: Test C pre-/postemergence: pigweed; type: in vivo
Summary of the method: as §2

wild oat (Avena fatua) = test: Test C pre-/postemergence: wild oat; type: in vivo; conditions: Postemergence
Summary of the method: as §2

[8] = Postemergence, 125 g ai/ha, 0 to 100 scale, 0 is no effect, 100 is complete control
[9] = Postemergence, 500 g ai/ha, visual rating on 0 to 100 scale (0 no effect, 100 complete control), approximately ten days
[10] = Preemergence, 125 g ai/ha, 0 to 100 scale where 0 is no effect and 100 is complete control
[11] = Preemergence, 500 g ai/ha, 0 to 100 scale (0 no effect, 100 complete control)
[12] = Postemergence, 31 g ai/ha, scale 0 to 100 (0 no effect, 100 complete control)
[13] = Postemergence, 62 g ai/ha, scale 0 to 100 (0 no effect, 100 complete control)
[14] = Postemergence, 125 g ai/ha, scale 0 to 100, 0 no effect, 100 complete control
[15] = Postemergence, 250 g ai/ha, scale 0 to 100
[16] = Preemergence, 31 g ai/ha, scale of 0 to 100, 0 is no effect, 100 is complete control
[17] = Preemergence, 62 g ai/ha, scale of 0 to 100, 0 is no effect, 100 is complete control
[18] = Preemergence, 125 g ai/ha, scale 0 to 100, 0 no effect, 100 complete control
[19] = Preemergence, 250 g ai/ha, scale 0 to 100, 0 no effect, 100 complete control
[20] = 31 g ai/ha, scale 0 to 100 (0 no effect, 100 complete control)
[21] = 62 g ai/ha, scale 0 to 100 (0 no effect, 100 complete control)

CCc1nn(-c2ccc(F)cc2)nc1Cc1ccnc(C(F)(F)F)c1 [Compound 154]
Plant response rating, Wheat [1, 8]: 20
Wheat plant response rating [1, 9]: 50
Plant response rating, Wheat [1, 10]: 0
Plant response rating, Wheat [1, 11]: 20
Plant response rating, Nutsedge, Yellow [2, 12]: 10
Plant response rating, Nutsedge, Yellow [2, 13]: 10
Plant response rating, Nutsedge, Yellow [2, 14]: 15
Plant response rating, Nutsedge, Yellow [2, 15]: 15
Plant response rating, Nutsedge, Yellow [2, 16]: 0
Plant response rating, Foxtail, Giant [3, 8]: 90
Foxtail, Giant plant response rating [3, 9]: 100
Plant response rating, Foxtail, Giant [3, 10]: 100
Plant response rating, Foxtail, Giant [3, 11]: 100
Plant response rating, Foxtail, Giant [4, 12]: 20
Plant response rating, Foxtail, Giant [4, 13]: 20
Plant response rating, Foxtail, Giant [4, 14]: 55
Plant response rating, Foxtail, Giant [4, 15]: 75
Plant response rating, Foxtail, Giant [4, 16]: 100
Plant response rating, Foxtail, Giant [4, 17]: 100
Plant response rating, Foxtail, Giant [4, 18]: 100
Plant response rating, Foxtail, Giant [4, 19]: 100
Plant response rating, Waterhemp (Waterhemp; [20]): 90
Plant response rating, Waterhemp (Waterhemp; [21]): 98
Plant response rating, Waterhemp (Waterhemp; 250 g ai/ha, scale 0 to 100): 98
Plant response rating, Oilseed Rape (Oilseed Rape): 90
Plant response rating, Crabgrass, Large [5, 8]: 100
Crabgrass, Large plant response rating [5, 9]: 100
Plant response rating, Crabgrass, Large [5, 10]: 100
Plant response rating, Crabgrass, Large [5, 11]: 100
Plant response rating, Soybean (soybean (Glycine max); [12]): 45
Plant response rating, Soybean (soybean (Glycine max); [13]): 60
Plant response rating, Soybean (soybean (Glycine max); [14]): 65
Plant response rating, Soybean (soybean (Glycine max); [15]): 75
Plant response rating, Soybean (soybean (Glycine max); [16]): 0
Plant response rating, Soybean (soybean (Glycine max); [17]): 0
Plant response rating, Soybean (soybean (Glycine max); [18]): 15
Plant response rating, Soybean (soybean (Glycine max); [19]): 15
Plant response rating, Pigweed [6, 8]: 100
Pigweed plant response rating [6, 9]: 100
Plant response rating, Pigweed [6, 10]: 100
Plant response rating, Pigweed [6, 11]: 100
Plant response rating, Pigweed [7, 12]: 95
Plant response rating, Pigweed [7, 13]: 95
Plant response rating, Pigweed [7, 14]: 98
Plant response rating, Pigweed [7, 15]: 98
Plant response rating, Pigweed [7, 16]: 100
Plant response rating, Pigweed [7, 17]: 100
Plant response rating, Pigweed [7, 18]: 100
Plant response rating, Pigweed [7, 19]: 100
Plant response rating, Oat, Wild (wild oat (Avena fatua); [20]): 15
Plant response rating, Oat, Wild (wild oat (Avena fatua); [21]): 35
Plant response rating, Oat, Wild (wild oat (Avena fatua); 125 g ai/ha, scale 0 to 100, 0 no effect, 100 complete control): 65
Plant response rating, Oat, Wild (wild oat (Avena fatua); 250 g ai/ha, scale 0 to 100): 65
